Results: patent publication US11879137B2, “Treatment of type 1 diabetes and autoimmune diseases or disorders” (THE CHILDREN'S MEDICAL CENTER CORPORATION, priority 2017, dated 2024)

Test system: KL cells from bone marrow of NOD mice
Assay: Flow cytometry of murine KL cells modulated with PGE2 or dmPGE2
Format: cell-based
Conditions: for CXCR4 among chemokine receptors on treated KL cells: chemokine receptor profile; for expression of PD-L2, PD-1, CD80 and CD40: vs unmodulated KL cells
From the text: FIGS. 19A-19G show the profile of murine KL cells. (FIG. 19A-19B) Representative flow cytometric analysis and quantitative bar graph of PD-L1 expression on Lineage^−c-kit^+ (KL) cells from NOD mice pre- and post-pharmacologic modulation with PGE2. (FIG. 19C-19D) Representative flow cytometric analysis and quantitative bar graph of CXCR4 expression on KL cells from NOD mice pre- and post-pharmacologic modulation with PGE2. (FIG. 19E) Quantitative bar graph of flow cytometric expression of positive and negative costimulatory molecules (CD40, CD80, CD86, PD-L1, PD-L2 and PD-1) and of select pro-inflammatory and anti-inflammatory cytokines (IFN-γ, IL-10, IL-4) in PGE2-modulated KL cells from NOD mice as compared to those modulated with a selected PGE2 clinical grade agonist (dmPGE2) and compared to unmodulated KL cells isolated from the bone marrow of normoglycemic NOD mice. (FIG. 19F) Flow cytometric expression of selected chemokine receptors (CXCR4, CCR2, CCR4, CCR5, CCR6, CCR7, CCR8, and CXCR3) in PGE2-modulated KL cells from NOD mice as compared to those modulated with a selected PGE2 clinical grade agonist (dmPGE2) and to unmodulated KL cells isolated from the bone marrow of normoglycemic NOD mice. (FIG. 19G) Quantitative bar graph of flow cytometric expression of chemokines receptors (CCR2, CCR4, CCR5, CCR6, CCR7, CCR8, CXCR3 and CXCR4) in PGE2-modulated KL cells from NOD mice as compared to those modulated with a selected PGE2 clinical grade agonist (dmPGE2) and compared to unmodulated KL cells isolated from the bone marrow of normoglycemic NOD mice. […] Abbreviations: KL, Lineage^−c-kit^+ cells.
Murine regulatory KL cell modulation. Murine bone marrow KL (c-Kit+Lineage-) cells were isolated using magnetic beads and MACS® separation columns (Miltenyi Biotec, San Diego, CA) and ˜2×10^5 cells were plated in a U-bottomed 96-well plate with 200 μl of stem cell medium, Stemspan-SFEMII (STEMCELL Technologies, Cambridge, MA) and PGE2 (PromoKine, PromoCell Gmbh, Germany) was added at day 0 and day 1, at a concentration of 10 μM.
Flow cytometric analysis and intracellular cytokine staining. Flow cytometry was performed to analyze surface expression markers of PGE2-modulated HSPCs and dmPGE2 (16, 16-dimethyl PGE2)-modulated HSPCs. Anti-mouse PD-L1, PD-L2, PD-1, CD40, CD80, CD86, CD4, CD8, Ly-6G (Gr-1), B220, CD3, CXCR4, CCR2, CCR4, CCR5, CCR6, CCR7, CCR8, CXCR3, IL-4, IL-10 and IFN-γ were purchased from BD Biosciences, eBioscience (San Diego, CA) and BioLegend. The following antibodies corresponded to isotype controls for the murine antibodies above: PE mouse IgG1, κ isotype ctrl, Armenian hamster IgG; APC mouse IgG2b, κ isotype ctrl, Armenian hamster IgG. Cells were subjected to FACS analysis and were run on a FACSCalibur™ (Becton Dickinson). Data were analyzed using FlowJo software version 8.7.3 (Treestar).
Murine PGE2-modulated HSPCs abrogate the autoimmune response in vitro. The feasibility of pharmacological modulation of PD-L1 with PGE2 was next explored in murine HSPCs. […] Moreover, the chemokine receptor profile of PGE2-modulated KL cells as compared to dmPGE2-modulated KL cells and unmodulated KL cells was explored in order to assess which chemokines are potentially involved in the homing of PGE2-modulated and dmPGE2-modulated KL cells. […] The immunoregulatory properties of PGE2-modulated KL cells was next explored in an autoimmune setting in vitro. PGE2-modulated KL cells generated from normoglycemic NOD mice were co-cultured at ratios of 1:1, 1:5 and 1:10 (KL cells to T cells) with CD11c+ DCs and BDC2.5 transgenic CD4+CD25− T cells in the presence of BDC2.5 peptide. […] Indeed, PGE2-modulated KL cells exerted a robust immunoregulatory effect even if added at low ratios (1:5 PGE2-treated KL cell to T cells). A less pronounced effect was observed when unmodulated KL were added to the assays. […] PGE2-modulated HSPCs are thus endowed with immunoregulatory properties and are capable of abrogating the autoimmune response in vitro. […]

Row | SMILES | CXCR4 among chemokine receptors on treated KL cells | expression of PD-L2, PD-1, CD80 and CD40 | CXCR4 expression on KL cells (FACS) | PD-L1 expression on KL cells (FACS, 10 μM day 0 and day 1)
1 | CCCCC(C)(C)[C@H](O)/C=C/[C@H]1[C@H](O)CC(=O)[C@@H]1C/C=C\CCCC(=O)O [16,16-dimethyl PGE2] | most expressed | similarly upregulated | – | –
2 | CCCCC[C@H](O)/C=C/[C@H]1[C@H](O)CC(=O)[C@@H]1C/C=C\CCCC(=O)O [PGE2, prostaglandin E2] | most expressed | upregulation | markedly upregulated | upregulation
